Data set [1] in a line: Toxicity of inactivator in combination with BCNU in xenograft-bearing mice (survival). The data set is classed as in vivo, nude mice. The following applies: mouse, in vivo, ip; in combination with BCNU, Figs. 9-13; read-out: death of treated animals. The procedure:
0X6 OPT, England (OLAC mice). […] For this reason lower doses were administered.
Xenograft tumour measurements were taken every 1-2 days by workers using digital calipers. Tumour volume was calculated using the formula (h x w x 1) π/6. The experimental animals were also weighed every 1-2 days. Measurements continued until tumours in the control animals reached the maximum allowable volume (i.e. 1cm x 1cm x 1cm).

The target in a further data set is T1, ATase (Rattus norvegicus, UniProt P24528).
T1 construct: endogenous in cells; host or cells: Yoshida
T1 sequence (P24528 1-209): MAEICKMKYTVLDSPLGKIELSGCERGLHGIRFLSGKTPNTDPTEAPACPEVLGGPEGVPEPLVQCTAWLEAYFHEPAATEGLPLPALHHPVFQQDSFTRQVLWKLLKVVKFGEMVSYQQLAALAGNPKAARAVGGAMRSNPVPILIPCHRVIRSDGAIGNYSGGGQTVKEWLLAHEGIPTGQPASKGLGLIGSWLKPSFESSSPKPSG
Briefly: Inactivation of ATase activity in Yoshida cells. The data set is classed as cell-based. The method, then: Mammalian cells were cultured under standard conditions. For example, Raji (a human lymphoblastoid cell line from a Burkitt's lymphoma) cells were grown in suspension culture in RPMI medium supplemented with 10% horse serum. A375M cells are human melanoma cells from which the xenografts described below were established following subcutaneous injection into nude mice: WiDr cells are a human colon carcinoma cell line: Hamster+120 cells are a mitozolomide-selected subline of a Chinese hamster lung fibroblast V79 cell line called RJKO: Yoshida cells are a rat carcinosarcoma cell line and YRbus is a busulphan resistant subline thereof: XP cells are an SV40-transformed fibroblast cell line originally from the skin of a Xeroderma pigmentosum patient, pHMGhAT2b cells are a clone of these cells that have been transfected with a mammalian cell expression vector containing the human ATase cDNA and pHMGla cells are a clone that have been transfected with the expression vector only (i.e. one not containing the human ATase cDNA). Cell pellets were resuspended in cold (4°C) buffer I containing 2 µg/ml leupeptin and sonicated for 10 seconds at 12 µ peak to peak distance. After cooling in ice, the cells were sonicated for a further 10 seconds at 18 µ. Immediately after sonication, 0.01 volumes of 8.7 mg/ml phenylmethanesulphonylfluoride in ethanol was added and the sonicates centrifuged at 15 000 g for 10 minutes at 4°C to pellet cell debris. The supernatant was kept for determination of ATase activity (see below).
Cells were diluted to 10^6/ml in culture medium containing either the appropriate concentration of inactivator or an equivalent volume of vehicle (DMSO). Following incubation at 37°C for 2 hours the cells were harvested by centrifugation, washed twice with PBS and the resulting cell pellets (between 1-2 x 10^7 per pellet) stored at -20°C. ATase activity was determined as described above, in duplicate sonicated cell extracts and expressed as the percentage activity remaining based on that present in the untreated controls (for example 350-450 fm/mg in Raji cells).

Data set [2] can be described thus: Inactivator toxicity in bone marrow cells (GM-CFC colonies, inactivator alone). In kind it is cell-based, human. The settings on record: human, bone marrow gm-cfc, inactivator 10uM, read-out: No. of colonies as % of control (ie no inactivator). The source says: For the granulocyte/macrophage colony-forming cell (GM-CFC) assay primary human bone marrow samples were obtained from patients undergoing cardiothoracic surgery. […] The colonies represented precursor cells of the granulocyte/macrophage lineage (huGM-CFC). […]

A further data set has as its system A375M cells. Briefly: Sensitization of A375M cells to BCNU (MTT assay). The data set is classed as cell-based, human. The procedure:
Sensitization of A375M cells to the cytotoxic effects of BCNU was analysed by MTT assay ^24 differing from the XTT assay described above as follows. […] After 6 days MTT solution (4mg/ml) was added and cells incubated for 3 hours at 37°C. Medium was aspirated and the resulting purple formazan crystals were solubilised in DMSO (120μl) and cell viability was quantified by measuring absorption at 540nm using a microtitre plate reader.
(In general: Formazan colour is commonly taken as a measure of viable cells.)

The next data set deals with human bone marrow cells. Briefly: Sensitization of bone marrow cells to temozolomide (GM-CFC assay). In kind it is cell-based. The following applies: three samples tested (BeG: all three; B.4205: two of these), Fig. 14, in words. The text has this:
For the granulocyte/macrophage colony-forming cell (GM-CFC) assay primary human bone marrow samples were obtained from patients undergoing cardiothoracic surgery. […] The colonies represented precursor cells of the granulocyte/macrophage lineage (huGM-CFC). Survival was expressed as a % of the number of colonies at zero dose temozolomide.

Data set [3] can be described thus: Stability of inactivators at 37°C (spectrophotometric half life). In kind it is physicochemical. The method, then: Inactivators (10mM in DMSO) were diluted to 0.1mM in prewarmed degassed buffer I (1mM EDTA, 50mM Tris pH 8.3) or PBS (pH 7-7.2). […] Samples were immediately transferred to a CARY13 spectrophotometer (cuvette block held at 37°C) and scanned at an appropriate wavelength (according to the spectral properties of the compound) at 3-10 minute intervals for up to 80 hours. The results were expressed as percentage absorbance change versus time and T1/2 values (half life) extrapolated from this.

The test system of data set [4] is Raji cells. Briefly: Sensitization of Raji cells to BCNU (XTT assay). The following applies: BCNU, 2 hour pretreatment. The data set is classed as cell-based, human. The method, then:
(§1) Following a 2 hour incubation at 37°C, medium containing either increasing doses of BCNU, temozolomide or equivalent vehicle was added and the cells allowed to grow for 6 days. At this time XTT solution was added and the cells incubated for a further 4 hours at 37°C. The resulting red/orange formazan reaction product was quantified by measuring absorption at 450nm on a microtitre platereader.

For data set [5], the system named is Raji cells. Briefly: Sensitization of Raji cells to temozolomide (XTT assay). In kind it is cell-based, human. The settings on record: inactivator 0.1 to 5.0µM, Figures 3 and 4, in words. The method, then:
as §1

Here are results for one compound from patent EP0702683B1, “06-SUBSTITUTED GUANINE DERIVATIVES, A PROCESS FOR THEIR PREPARATION AND THEIR USE IN TREATING TUMOUR CELLS” (Cancer Research Technology Limited, priority 1993, dated 1994).

Where two headings read alike, the source gives them in different places. Bounds are passed on as bounds.

Take `Nc1nc(OCc2ccccc2)c2nc[nH]c2n1` [O^6-benzylguanine, reference compound]: the mortality in data set [1] is at most 70%. In addition, at ATase, it took 140 nM to reach half-maximal inhibition (IC50). Further, the viability at 216 h, 10 µM in data set [2] (Patient A) is 95%; in data set [2] (Patient B), 46%; in data set [2] (Patient C) it was 88%; in data set [2] (Patient D) it was 88%; in data set [2] (Patient E), 89%. Besides, the “A375M sensitization (D50.^C/D50.^I) 0.5uM” value with A375M cells (inactivator 0.5uM 2 hours before) is 3.1. Besides, the “A375M sensitization (D50.^C/D50.^I) 1.0uM” value in the data set on A375M cells (inactivator 1.0uM 2 hours before) is on record as 2.3. For the same compound, in the data set on A375M cells (inactivator 5.0uM 2 hours before), the “A375M sensitization (D50.^C/D50.^I) 5.0uM” value is reported as 4.2. In addition, in the data set on human bone marrow cells, the “sensitization of GM-CFCs in human bone marrow samples to the toxic effects of temozolomide” value was “sensitised”. Also, the half-life at 100 µM is above 16 h in data set [3] (0.1mM in PBS (pH 7-7.2), read-out: T1/2(h) in PBS (converted)) and above 64 h in data set [3] (0.1mM in buffer I (1mM EDTA, 50mM Tris pH 8.3), read-out: T1/2(h) in Buffer I (converted)). Also, in the data set on Raji cells [4] (inactivator 0.5µM), the “Raji sensitization (D90.^C/D90.^I) 0.5µM” value is recorded as “*2.0 ± 0.4”. In addition, in the data set with Raji cells [4] (inactivator 1.0µM), the “Raji sensitization (D90.^C/D90.^I) 1.0µM” value is given as “*3.8 ± 1.8”. The “Raji sensitization (D90.^C/D90.^I) O.1µM” value with Raji cells [4] (inactivator O.1µM) is recorded as “*1.9 ± 0.7”. For the same compound, the “dose response of sensitization of Raji cells to temozolomide” value with Raji cells [5] was “clear dose response”.
